# Biological target: T1, hROMK (hKir1.1) (Homo sapiens, UniProt P48048)
# T1 construct: expressed in transfected cells
# T1 sequence (P48048 1-391): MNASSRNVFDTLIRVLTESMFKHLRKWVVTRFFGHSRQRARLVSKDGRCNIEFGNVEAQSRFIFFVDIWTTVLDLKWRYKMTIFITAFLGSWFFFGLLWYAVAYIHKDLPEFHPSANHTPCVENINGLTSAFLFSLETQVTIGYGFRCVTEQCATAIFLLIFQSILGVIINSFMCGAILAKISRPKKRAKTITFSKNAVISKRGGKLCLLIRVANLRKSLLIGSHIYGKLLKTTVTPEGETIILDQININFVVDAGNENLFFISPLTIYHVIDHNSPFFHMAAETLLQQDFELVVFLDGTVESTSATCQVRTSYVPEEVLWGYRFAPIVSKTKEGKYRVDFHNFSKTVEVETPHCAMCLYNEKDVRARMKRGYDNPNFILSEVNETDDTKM
# Assay: Thallium Flux Assay (ROMK channel functional thallium flux, FLIPR-Tetra)
# Type: cell-based
# Details: HEK293 cells stably expressing hROMK (hKir1.1); 30 min compound incubation
# In short: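 HEK293 cells stably expressing hKir1.1, loaded with FluxOR dye for 90 min, then preincubated with compound for 30 min at ambient temperature with 0.3 mM ouabain and probenecid. Stimulated with 3 mM thallium/0.3 mM potassium (final); fluorescence read ~10 min. Normalized to 3 μM reference ROMK inhibitor; IC50 from inhibition of flux.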
row,SMILES,IC50
1,"C[C@H]1CC2(CCN(C[C@@H](O)c3cnc(-n4cnnn4)cn3)CC2)C(=O)N1C1=CC(=O)OC1 [Example 78, (3S)-8-{(2R)-2-hydroxy-2-[5-(1H-tetrazol-1-yl)pyrazin-2-yl]ethyl}-3-methyl-1-oxo-2-(5-oxo-2,5-dihydrofuran-3-yl)-2-aza-8-azoniaspiro[4.5]decane]",0.01 µM
2,"C[C@@H]1CC2(CCN(C[C@H](O)c3cnc(-n4cnnn4)cn3)CC2)C(=O)N1C1=CC(=O)OC1 [Example 79, (3R)-8-{(2S)-2-hydroxy-2-[5-(1H-tetrazol-1-yl)pyrazin-2-yl]ethyl}-3-methyl-1-oxo-2-(5-oxo-2,5-dihydrofuran-3-yl)-2-aza-8-azoniaspiro[4.5]decane]",0.1 µM
3,"C[C@@H]1CC2(CCN(C[C@@H](O)c3cnc(-n4cnnn4)cn3)CC2)C(=O)N1C1=CC(=O)OC1 [Example 80, (3R)-8-{(2R)-2-hydroxy-2-[5-(1H-tetrazol-1-yl)pyrazin-2-yl]ethyl}-3-methyl-1-oxo-2-(5-oxo-2,5-dihydrofuran-3-yl)-2-aza-8-azoniaspiro[4.5]decane]",0.13 µM
4,"C[C@H]1CC2(CCN(C[C@H](O)c3ccc(-n4cnnn4)nc3)CC2)C(=O)N1C1=CC(=O)OC1 [Example 81, (3S)-8-{(2R)-2-hydroxy-2-[6-(1H-tetrazol-1-yl)pyridin-3-yl]ethyl}-3-methyl-1-oxo-2-(5-oxo-2,5-dihydrofuran-3-yl)-2-aza-8-azoniaspiro[4.5]decane]",0.01 µM
5,"C[C@H]1CC2(CCN(C[C@@H](O)c3ccc(-n4cnnn4)nc3)CC2)C(=O)N1C1=CC(=O)OC1 [Example 82, (3S)-8-{(2S)-2-hydroxy-2-[6-(1H-tetrazol-1-yl)pyridin-3-yl]ethyl}-3-methyl-1-oxo-2-(5-oxo-2,5-dihydrofuran-3-yl)-2-aza-8-azoniaspiro[4.5]decane]",0.01 µM
6,"C[C@@H]1CC2(CCN(C[C@H](O)c3ccc(-n4cnnn4)nc3)CC2)C(=O)N1C1=CC(=O)OC1 [Example 83, (3R)-8-{(2R)-2-hydroxy-2-[6-(1H-tetrazol-1-yl)pyridin-3-yl]ethyl}-3-methyl-1-oxo-2-(5-oxo-2,5-dihydrofuran-3-yl)-2-aza-8-azoniaspiro[4.5]decane]",0.01 µM
7,"C[C@@H]1CC2(CCN(C[C@@H](O)c3ccc(-n4cnnn4)nc3)CC2)C(=O)N1C1=CC(=O)OC1 [Example 84, (3R)-8-{(2S)-2-hydroxy-2-[6-(1H-tetrazol-1-yl)pyridin-3-yl]ethyl}-3-methyl-1-oxo-2-(5-oxo-2,5-dihydrofuran-3-yl)-2-aza-8-azoniaspiro[4.5]decane]",0.01 µM
8,"CC1=C(N2CCC3(CCN(C[C@H](O)c4cnc(-n5cnnn5)nc4C)CC3)C2=O)COC1=O [Example 85, 8-{(2R)-2-hydroxy-2-[4-methyl-2-(1H-tetrazol-1-yl)pyrimidin-5-yl]ethyl}-2-(4-methyl-5-oxo-2,5-dihydrofuran-3-yl)-1-oxo-2-aza-8-azoniaspiro[4.5]decane]",0.03 µM
9,"CC1=C(N2CCC3(CCN(C[C@@H](O)c4cnc(-n5cnnn5)nc4C)CC3)C2=O)COC1=O [Example 86, 8-{(2S)-2-hydroxy-2-[4-methyl-2-(1H-tetrazol-1-yl)pyrimidin-5-yl]ethyl}-2-(4-methyl-5-oxo-2,5-dihydrofuran-3-yl)-1-oxo-2-aza-8-azoniaspiro[4.5]decane]",0.04 µM
10,"CC1=C(N2CCC3(CCN(C[C@H](O)c4cnc(-n5cnnn5)c(C)n4)CC3)C2=O)COC1=O [Example 87, 8-{(2S)-2-hydroxy-2-[6-methyl-5-(1H-tetrazol-1-yl)pyrazin-2-yl]ethyl}-2-(4-methyl-5-oxo-2,5-dihydrofuran-3-yl)-1-oxo-2-aza-8-azoniaspiro[4.5]decane]",0.05 µM
11,"CC1=C(N2CCC3(CCN(C[C@@H](O)c4cnc(-n5cnnn5)c(C)n4)CC3)C2=O)COC1=O [Example 88, 8-{(2R)-2-hydroxy-2-[6-methyl-5-(1H-tetrazol-1-yl)pyrazin-2-yl]ethyl}-2-(4-methyl-5-oxo-2,5-dihydrofuran-3-yl)-1-oxo-2-aza-8-azoniaspiro[4.5]decane]",0.04 µM
12,"COc1cc(-n2cnnn2)ncc1[C@@H](O)CN1CCC2(CC1)CCN(C1=C(C)C(=O)OC1)C2=O [Example 93, 8-{(2R)-2-hydroxy-2-[4-methoxy-6-(1H-tetrazol-1-yl)pyridin-3-yl]ethyl}-2-(4-methyl-5-oxo-2,5-dihydrofuran-3-yl)-1-oxo-2-aza-8-azoniaspiro[4.5]decane]",0.03 µM
13,"COc1cc(-n2cnnn2)ncc1[C@H](O)CN1CCC2(CC1)CCN(C1=C(C)C(=O)OC1)C2=O [Example 94, 8-{(2S)-2-hydroxy-2-[4-methoxy-6-(1H-tetrazol-1-yl)pyridin-3-yl]ethyl}-2-(4-methyl-5-oxo-2,5-dihydrofuran-3-yl)-1-oxo-2-aza-8-azoniaspiro[4.5]decane]",0.02 µM
14,"CC1=C(N2CCC3(CCN(C[C@H](O)c4ccc(-n5cnnn5)c(C#N)c4)CC3)C2=O)COC1=O [Example 95, 8-{(2R)-2-[3-cyano-4-(1H-tetrazol-1-yl)phenyl]-2-hydroxyethyl}-2-(4-methyl-5-oxo-2,5-dihydrofuran-3-yl)-1-oxo-2-aza-8-azoniaspiro[4.5]decane]",0.05 µM
15,"CC1=C(N2CCC3(CCN(C[C@@H](O)c4ccc(-n5cnnn5)c(C#N)c4)CC3)C2=O)COC1=O [Example 96, 8-{(2S)-2-[3-cyano-4-(1H-tetrazol-1-yl)phenyl]-2-hydroxyethyl}-2-(4-methyl-5-oxo-2,5-dihydrofuran-3-yl)-1-oxo-2-aza-8-azoniaspiro[4.5]decane]",0.07 µM
16,"CC1=C(N2CC(=O)C3(CCN(C[C@H](O)c4ccc(-n5cnnn5)nc4)CC3)C2=O)COC1=O [Example 97, 8-{(2R)-2-hydroxy-2-[6-(1H-tetrazol-1-yl)pyridin-3-yl]ethyl}-2-[4-methyl-5-oxo-2,5-dihydrofuran-3-yl)-1,4-dioxo-2-aza-8-azoniaspiro[4.5]decane]",0.02 µM
17,"CC1=C(N2CCC3(CCN(C[C@H](O)c4ncc(-n5cnnn5)nc4C)CC3)C2=O)COC1=O [Example 98, 8-{(2S)-2-hydroxy-2-[3-methyl-5-(1H-tetrazol-1-yl)pyrazin-2-yl]ethyl}-2-(4-methyl-5-oxo-2,5-dihydrofuran-3-yl)-1-oxo-2-aza-8-azoniaspiro[4.5]decane]",0.04 µM
18,"CC1=C(N2CCC3(CCN(C[C@@H](O)c4ncc(-n5cnnn5)nc4C)CC3)C2=O)COC1=O [Example 99, 8-{(2R)-2-hydroxy-2-[3-methyl-5-(1H-tetrazol-1-yl)pyrazin-2-yl]ethyl}-2-(4-methyl-5-oxo-2,5-dihydrofuran-3-yl)-1-oxo-2-aza-8-azoniaspiro[4.5]decane]",0.05 µM
19,"CC1=C(N2CCC3(CC4CN(C)CC(C3)N4C[C@H](O)c3ccc(-n4cnnn4)nc3)C2=O)COC1=O (stereo partly drawn) [Example 112, (1R,5R,7R,9R)-9-{(2R)-2-hydroxy-2-[6-(1H-tetrazol-1-yl)pyridin-3-yl]ethyl}-7-methyl-1′-(4-methyl-5-oxo-2,5-dihydrofuran-3-yl)-2′-oxospiro[7,9-diazoniabicyclo[3.3.1]nonane-3,3′-pyrrolidine]]",0.41 µM
20,"CC1=C(N2C=CC3(CCN(C[C@H](O)c4ccc(-n5cnnn5)nc4)CC3)C2=O)COC1=O [Example 116, 8-{(2R)-2-hydroxy-2-[6-(1H-tetrazol-1-yl)pyridin-3-yl]ethyl}-2-(4-methyl-5-oxo-2,5-dihydrofuran-3-yl)-1-oxo-2-aza-8-azoniaspiro[4.5]dec-3-ene]",0.03 µM
